# According to patent US12473266B2, “Benzoxazole and related compounds useful as chaperone-mediated autophagy modulators” (Albert Einstein College of Medicine, priority 2018, dated 2025):
# Columns and labels:
# [1] = tested on: CMA activity (KFERQ-Dendra reporter) in NIH 3T3 fibroblasts; assay: Photoconvertible CMA reporter (KFERQ-Dendra) assay, fluorescent puncta per cell; assay type: cell-based; settings: NIH 3T3 KFERQ-Dendra; for effect on the number of fluorescent puncta per cell: result in words
# Description: The photoactivatable CMA reporter assay was constructed by inserting a sequence of 21 amino acid of Ribonuclease A bearing the CMA-targeting motif in the N-terminus multicloning site of the photoactivatable protein mCherry1 or the photoswitchable protein Dendra 2.
# NIH 3T3 fibroblasts were stably transduced with a photoconvertible CMA reporter, KFERQ-Dendra and were photoswitched by exposure to a […] (constant current) LED (Norlux, 405 nm) for 10 minutes and at the desired times fixed in 3% formaldehyde. Test cells are exposed to the indicated concentrations of the compounds, e.g. for 12 hours or 24 hours. Cells are imaged, e.g., by using high content microscopy (Operetta, Perkin Elmer) or by capturing images with an Axiovert 200 fluorescence microscope (Zeiss) with apotome and equipped with a 63×1.4 NA oil objective lens and red (ex. 570/30 nm, em. 615/30 nm), cyan (ex. 365/50 nm and em. 530/45 nm) and green (ex. 475/40 nm and em. 535/45 nm) filter sets (Chroma). Images were acquired with a high-resolution CCD camera after optical sectioning through the apotome. CMA activity is measured as the average number of fluorescent puncta (CMA active lysosomes) per cell. Values are expressed relative to values in untreated cells that were assigned an arbitrary value of 1 and are mean of >2,500 cells counted per condition. The S.D. in all instances was <0.01% mean value.
# [2] = in vitro
# Description: Microsome stability is determined in human, rat, and mouse, liver microsomes.
# Compound at 3 μM final concentration along with 0.5 mg/mL microsome protein and 1 mM NADPH was incubated for 0, 5, 15, 30 and 60 min. As a negative control, test compound is incubated with microsomes in the absence of NADPH. Samples are quenched with methanol and centrifuged for 25 min at 2500 rpm to precipitate proteins. Supernatants are analyzed (N=3) by LC-MS./MS. The ln peak area ratio (compound peak area/internal standard peak area) is plotted against time and the gradient of the line determined the elimination rate constant [k=(−1)(slope)].
# R^2 is the correlation coefficient of the linear regression for the determination of kinetic constant. T1/2 is the half life and CLint (mic) is the intrinsic clearance. CLint(liver)=CLint (mic)*mg microsomal protein/g liver weight*g liver weight/kg body weight. Liver weight/kg body weight is 20 g/kg for human.
structure (smiles),measurement,setting,value
"FC(F)(F)c1ccc(-c2ccc(-c3nc4ccc(Cl)cc4o3)cc2)cc1 [Cmp. 10, 6-chloro-2-(4′-trifluoromethyl-[1,1′-biphenyl]-4-yl)benzo[d]oxazole]",effect on the number of fluorescent puncta per cell,[1],positive effect
"O=C(Nc1ccc(-c2nc3cc(Cl)ccc3o2)cc1)C(F)(F)F [Cmp. 13, N-(4-(5-chlorobenzo[d]oxazol-2-yl)phenyl)-2,2,2-trifluoroacetamide]",effect on the number of fluorescent puncta per cell,[1],positive effect
"CC(C)CC(=O)Nc1ccc(-c2nc3ccc(Cl)cc3o2)cc1 [Cmp. 5, N-(4-(6-chlorobenzo[d]oxazol-2-yl)phenyl)-3-methylbutanamide]",effect on the number of fluorescent puncta per cell,[1],positive effect
Clc1ccc2c(c1)OCC(c1ccc(-c3ccccc3)cc1)=N2 [Cmp. A],CLint(mic),"[2]; human, microsomes, 3 μM",36.6 µL/min/mg
same,Remaining (T = 60 min),"[2]; human, microsomes, 1 h, 3 μM",30.1%
"O=C(Nc1ccc(-c2nc3ccc(Cl)cc3o2)cc1)c1ccc(F)cc1 [Cmp. 6, N-(4-(6-chlorobenzo[d]oxazol-2-yl)phenyl)-4-fluorobenzamide]",effect on the number of fluorescent puncta per cell,[1],positive effect
"O=C(Nc1ccc(-c2nc3ccc(Cl)cc3o2)cc1)C(F)(F)F [Cmp. 3, N-(4-(6-chlorobenzo[d]oxazol-2-yl)phenyl)-2,2,2-trifluoroacetamide]",effect on the number of fluorescent puncta per cell,[1],positive effect
"O=S(=O)(Nc1ccc(-c2nc3ccc(Cl)cc3o2)cc1)C(F)(F)F [Cmp. 8, N-(4-(6-chlorobenzo[d]oxazol-2-yl)phenyl)-1,1,1-trifluoromethanesulfonamide]",effect on the number of fluorescent puncta per cell,[1],positive effect
C[C@]12CC[C@H]3[C@@H](CCC4=CC(=O)CC[C@@]43C)[C@@H]1CC[C@@H]2O [Testosterone],Remaining (T = 60 min),"[2]; human microsomes, 60 min incubation",4.6%
"O=S(=O)(Nc1ccc(-c2nc3ccc(Cl)cc3o2)cc1)c1ccc(F)cc1 [Cmp. 7, N-(4-(6-chlorobenzo[d]oxazol-2-yl)phenyl)-4-fluorobenzenesulfonamide]",effect on the number of fluorescent puncta per cell,[1],positive effect
"O=C(Nc1ccc(-c2ccc(-c3nc4cc(Cl)ccc4o3)cc2)cc1)C(F)(F)F [Cmp. 14, N-(4′-(5-chlorobenzo[d]oxazol-2-yl)-[1,1′-biphenyl]-4-yl)-2,2,2-trifluoroacetamide]",effect on the number of fluorescent puncta per cell,[1],positive effect
O=C(O)Cc1ccccc1Nc1c(Cl)cccc1Cl [Diclofenac],Remaining (T = 60 min),"[2]; human, microsomes, 1 h, 3 μM",6.8%
"CC(=O)Nc1ccc(-c2nc3ccc(Cl)cc3o2)cc1 [Cmp. 2, N-(4-(6-chlorobenzo[d]oxazol-2-yl)phenyl)acetamide]","CMA activity, average number of fluorescent puncta (CMA active lysosomes) per cell, relative to untreated cells (=1)",[1]; column 'Time' = 5,2.72
same,"CMA activity, average number of fluorescent puncta (CMA active lysosomes) per cell, relative to untreated cells (=1)",[1]; column 'Time' = 10,2.63
same,"CMA activity, average number of fluorescent puncta (CMA active lysosomes) per cell, relative to untreated cells (=1)",[1]; column 'Time' = 20,3.40
same,"CMA activity, average number of fluorescent puncta (CMA active lysosomes) per cell, relative to untreated cells (=1)",[1]; column 'Time' = 30,5.12
"Clc1ccc2nc(-c3ccc(-c4ccccc4)cc3)oc2c1 [Cmp. 1, 2-([1,1′-biphenyl]-4-yl)-6-chlorobenzo[d]oxazole]","CMA activity, average number of fluorescent puncta (CMA active lysosomes) per cell, relative to untreated cells (=1)",[1]; column 'Time' = 5,2.43
same,"CMA activity, average number of fluorescent puncta (CMA active lysosomes) per cell, relative to untreated cells (=1)",[1]; column 'Time' = 10,2.16
same,"CMA activity, average number of fluorescent puncta (CMA active lysosomes) per cell, relative to untreated cells (=1)",[1]; column 'Time' = 20,2.98
same,"CMA activity, average number of fluorescent puncta (CMA active lysosomes) per cell, relative to untreated cells (=1)",[1]; column 'Time' = 30,3.22
same,CLint scaled at 3 μM,"[2]; human, microsomes",< 8.6 mL/min/kg
same,half-life at 3 μM,"[2]; human, microsomes",> 2.42 h
same,CLint(mic),"[2]; human, microsomes, 3 μM",< 9.6 µL/min/mg
same,Remaining (T = 60 min),"[2]; human, microsomes, 1 h, 3 μM",83.4%
